Data reported in PubChem BioAssay AID248 (DTP/NCI, 2004).
Several values for one entry are separate records, joined by “and”; a condition that tells them apart may be missing. Equal entries are not always repeated. Inconclusive results and toxic doses are left out. No stated cut-off is given here; in the data, active means T/C of 150% or more; inactive means T/C below 125%.

System: L1210 leukemia ip in BDF1 mice, survival T/C
Experiment: NCI In Vivo Anticancer Drug Screen. Data for tumor model L1210 Leukemia (intraperitoneal) in B6D2F1 (BDF1) mice
Details: endpoint: mean survival time, higher = longer survival
Procedure, shortened: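 Tumor cells were implanted, animals were treated, and survival was followed. The result divides the treated measurement by the vehicle-control measurement.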

[1] = dose: 100.0 mg/kg/injection, schedule: Q01DX009 (ip), vehicle: Klucel (hydroxypropylcellulose) (HPC)
[2] = dose: 100.0 mg/kg/injection, schedule: Q04DX003 (ip), vehicle: Klucel (hydroxypropylcellulose) (HPC)
[3] = dose: 200.0 mg/kg/injection, schedule: Q01DX009 (ip), vehicle: Klucel (hydroxypropylcellulose) (HPC)
[4] = dose: 200.0 mg/kg/injection, schedule: Q04DX003 (ip), vehicle: Klucel (hydroxypropylcellulose) (HPC)
[5] = dose: 400.0 mg/kg/injection, schedule: Q04DX003 (ip), vehicle: Klucel (hydroxypropylcellulose) (HPC)
[6] = dose: 50.0 mg/kg/injection, schedule: Q01DX Z (ip), vehicle: methylcellulose (MC)
[7] = dose: 50.0 mg/kg/injection, schedule: Q01DX009 (ip), vehicle: saline
[8] = dose: 100.0 mg/kg/injection, schedule: Q01DX009 (ip), vehicle: saline
[9] = dose: 100.0 mg/kg/injection, schedule: Q04DX003 (ip), vehicle: saline with Tween-80
[10] = dose: 200.0 mg/kg/injection, schedule: Q01DX009 (ip), vehicle: saline
[11] = dose: 200.0 mg/kg/injection, schedule: Q04DX003 (ip), vehicle: saline with Tween-80
[12] = dose: 25.0 mg/kg/injection, schedule: Q01DX009 (ip), vehicle: saline
[13] = dose: 25.0 mg/kg/injection, schedule: Q04DX003 (ip), vehicle: saline
[14] = dose: 100.0 mg/kg/injection, schedule: Q04DX003 (ip), vehicle: saline

Measured: T/C

Cc1c(NC(=O)CCl)c(=O)n(-c2ccccc2)n1C
inactive: [1] 98 % of control | [2] 100 % of control | [3] 94 % of control | [4] 96 % of control | [5] 95 % of control

CC(=O)N(N=Nc1ccccc1)c1cccc2ccccc12
inactive: [1] 116 % of control | [2] 108 % of control | [3] 96 % of control | [4] 109 % of control | [5] 108 % of control

NC1=NC(CNC(=O)c2cccc([N+](=O)[O-])c2)N(c2cccc(Cl)c2)C(N)=N1 (configuration not stated)
inactive: [6] 93 % of control

N#Cc1cccnc1
inactive: [7] 97 % of control | [8] 110 % of control | [9] 90 % of control | [10] 108 % of control | [11] 102 % of control | dose: 400.0 mg/kg/injection, schedule: Q04DX003 (ip), vehicle: saline with Tween-80 104 % of control

CCCCCNC(=O)CCC(=O)NCCCCC
inactive: dose: 100.0 mg/kg/injection, schedule: Q01DX001 (ip), vehicle: other 98 % of control | dose: 200.0 mg/kg/injection, schedule: Q01DX001 (ip), vehicle: other 98 % of control | dose: 400.0 mg/kg/injection, schedule: Q01DX001 (ip), vehicle: other 98 % of control

O=C(c1cccnc1)N1CCCC1
inactive: [1] 113 % of control | [3] 109 % of control | dose: 400.0 mg/kg/injection, schedule: Q01DX009 (ip), vehicle: Klucel (hydroxypropylcellulose) (HPC) 98 % of control

O=C(CCl)NP(=O)(O)O
inactive: dose: 25.0 mg/kg/injection, schedule: Q04DX002 (ip), vehicle: saline 97 % of control | dose: 50.0 mg/kg/injection, schedule: Q04DX002 (ip), vehicle: saline 102 % of control | dose: 100.0 mg/kg/injection, schedule: Q04DX002 (ip), vehicle: saline 102 % of control

CCOC(=O)c1c(-c2ccccc2)csc1N
inactive: dose: 50.0 mg/kg/injection, schedule: Q04DX003 (ip), vehicle: saline with Tween-80 97 % of control | [9] 94 % of control | [11] 90 % of control

N#C/C(=C1C=C(Br)/C(=N\O)C=C\1Cl)c1ccc(Cl)cc1
inactive: dose: 100.0 mg/kg/injection, schedule: Q01DX009 (ip), vehicle: acetone 95 % of control | dose: 100.0 mg/kg/injection, schedule: Q04DX003 (ip), vehicle: acetone 100 % of control | dose: 200.0 mg/kg/injection, schedule: Q04DX003 (ip), vehicle: acetone 100 % of control | dose: 400.0 mg/kg/injection, schedule: Q04DX003 (ip), vehicle: acetone 94 % of control

CC1CCCCN1CCCO (configuration not stated)
inactive: [12] 87 % of control | [13] 103 % of control | [7] 91 % of control | dose: 50.0 mg/kg/injection, schedule: Q04DX003 (ip), vehicle: saline 112 % of control | [8] 89 % of control | [14] 92 % of control and 95 % of control

CC(=O)SCC(C)CCl (configuration not stated)
inactive: [14] 102 % of control | dose: 200.0 mg/kg/injection, schedule: Q04DX003 (ip), vehicle: saline 107 % of control | dose: 400.0 mg/kg/injection, schedule: Q04DX003 (ip), vehicle: saline 104 % of control

C[N+](C)(C)Cc1ccccc1C=C(c1ccccc1)c1ccccc1
inactive: dose: 12.5 mg/kg/injection, schedule: Q01DX009 (ip), vehicle: Klucel (hydroxypropylcellulose) (HPC) 98 % of control | dose: 25.0 mg/kg/injection, schedule: Q01DX009 (ip), vehicle: Klucel (hydroxypropylcellulose) (HPC) 104 % of control | dose: 25.0 mg/kg/injection, schedule: Q04DX003 (ip), vehicle: Klucel (hydroxypropylcellulose) (HPC) 101 % of control | dose: 50.0 mg/kg/injection, schedule: Q01DX009 (ip), vehicle: Klucel (hydroxypropylcellulose) (HPC) 98 % of control | dose: 50.0 mg/kg/injection, schedule: Q04DX003 (ip), vehicle: Klucel (hydroxypropylcellulose) (HPC) 88 % of control

COc1ccc(C(CCCC(=O)O)C(CC(=O)O)C(=O)O)cc1 (configuration not stated)
inactive: dose: 75.0 mg/kg/injection, schedule: Q04DX003 (ip), vehicle: saline 96 % of control | dose: 150.0 mg/kg/injection, schedule: Q04DX003 (ip), vehicle: saline 103 % of control | dose: 300.0 mg/kg/injection, schedule: Q04DX003 (ip), vehicle: saline 112 % of control

Cc1ccc(-n2c(O)c(N=Nc3ccc(Br)cc3)c(=O)n(-c3ccc(I)cc3)c2=S)cc1
inactive: dose: 50.0 mg/kg/injection, schedule: Q01DX001 (ip), vehicle: Klucel (hydroxypropylcellulose) (HPC) 100 % of control | dose: 100.0 mg/kg/injection, schedule: Q01DX001 (ip), vehicle: Klucel (hydroxypropylcellulose) (HPC) 109 % of control | dose: 200.0 mg/kg/injection, schedule: Q01DX001 (ip), vehicle: Klucel (hydroxypropylcellulose) (HPC) 106 % of control

Cc1cc(N)c2cc(NC(=O)CCCCCCCC(=O)Nc3ccc4nc(C)cc(N)c4c3)ccc2n1
inactive: dose: 20.0 mg/kg/injection, schedule: Q01DX Z (ip), vehicle: methylcellulose (MC) 93 % of control | dose: 33.0 mg/kg/injection, schedule: Q01DX Z (ip), vehicle: methylcellulose (MC) 110 % of control | [6] 112 % of control | dose: 75.0 mg/kg/injection, schedule: Q01DX Z (ip), vehicle: methylcellulose (MC) 114 % of control

O=C1CCC(=O)N1C(=O)c1ccccc1
inactive: dose: 100.0 mg/kg/injection, schedule: Q01DX Z (ip), vehicle: methylcellulose (MC) 104 % of control | dose: 150.0 mg/kg/injection, schedule: Q01DX Z (ip), vehicle: methylcellulose (MC) 102 % of control | dose: 225.0 mg/kg/injection, schedule: Q01DX Z (ip), vehicle: methylcellulose (MC) 95 % of control

CCCCCCCCCCCCCCCCN1CCCN(CCCCCCCCCCCCCCCC)CC1
inactive: [12] 107 % of control and 113 % of control | [7] 95 % of control and 100 % of control | [8] 94 % of control and 102 % of control | [10] 91 % of control

O=[N+]([O-])c1ccc(OCCC[P+](c2ccccc2)(c2ccccc2)c2ccccc2)c(Cl)c1
inactive: dose: 3.12 mg/kg/injection, schedule: Q01DX009 (ip), vehicle: saline 98 % of control | dose: 6.25 mg/kg/injection, schedule: Q01DX009 (ip), vehicle: saline 95 % of control | dose: 6.25 mg/kg/injection, schedule: Q04DX003 (ip), vehicle: saline 94 % of control | dose: 12.5 mg/kg/injection, schedule: Q01DX009 (ip), vehicle: saline 86 % of control and 87 % of control | dose: 12.5 mg/kg/injection, schedule: Q04DX003 (ip), vehicle: saline 92 % of control | [13] 90 % of control

CC1=CCC2(C)C(=O)C1CC1=C2CC(C)(C)CC1=O (configuration not stated)
inactive: [8] 92 % of control | [2] 101 % of control | [10] 94 % of control | [4] 98 % of control | dose: 400.0 mg/kg/injection, schedule: Q01DX009 (ip), vehicle: saline 101 % of control | [5] 98 % of control

N#CC(C#N)N=Nc1ccc(Cl)cc1Cl
inactive: dose: 2.5 mg/kg/injection, schedule: Q04DX002 (ip), vehicle: Klucel (hydroxypropylcellulose) (HPC) 98 % of control | dose: 5.0 mg/kg/injection, schedule: Q04DX002 (ip), vehicle: Klucel (hydroxypropylcellulose) (HPC) 102 % of control | dose: 10.0 mg/kg/injection, schedule: Q04DX002 (ip), vehicle: Klucel (hydroxypropylcellulose) (HPC) 98 % of control

CC(=O)C1CCC2C3CCC4=CC(=O)CC4(C)C3CCC12C (configuration not stated)
inactive: dose: 50.0 mg/kg/injection, schedule: Q01DX009 (ip), vehicle: saline with Tween-80 113 % of control | dose: 100.0 mg/kg/injection, schedule: Q01DX009 (ip), vehicle: saline with Tween-80 105 % of control | dose: 200.0 mg/kg/injection, schedule: Q01DX009 (ip), vehicle: saline with Tween-80 90 % of control
